Counter-ions that a name gives are not always drawn.
Experiment: Capillary electrophoresis, effective electrophoretic mobility (acetone as EOF marker)
Format: physicochemical
Conditions: pH 4.4; I = 25 mmol/L, 11 kV, 25 °C, three replicates
Experimental: All experiments were performed using the SpectraPhoresis 500-capillary electrophoresis system (Spectra Physics Analytical, USA) with UV detector. Data were recorded and analyzed using ChromQuest software version 4.0 (Thermo Finnigan, USA).
The separations were performed with an uncoated fused capillary (total length 31.5 cm, 50 μm id, effective length 24 cm, Polymicro Technologies, USA) applying a voltage of 11 kV and at 25 °C. The samples were injected hydrodynamically and detection was performed in the 200-280 nm range. The new capillary was rinsed stepwise with 0.1 M NaOH (15 min), water (10 min) and a running buffer (10 min). Finally, a 10 min high voltage was applied through the background electrolyte-filled capillary to equalize the inner surface, stabilize the electroosmotic flow and ensure good reproducibility of injections from run to run. […] Between runs, the capillary was rinsed with the background electrolyte for 1 minute.
where Lt is the total length of the capillary (cm), Leff is the effective length of the capillary (cm), U is the applied voltage (V), tm is the migration time of the analyte (s) and teof is the migration time of the electroneutral EOF marker acetone (s). The calculated μeff values (μeff4.4, μeff7.4 and μeff9.1) were used as dependent variables in QSMR analysis.

Q: Which µeff4.4 does the source give for `CN1CCN(C2=Nc3cc(Cl)ccc3Nc3ccccc32)CC1` [Clozapine, clozapine] here?
A: Its µeff4.4 is 22.697 ± 0.017 10^-5 cm^2 V^-1 s^-1.

Q: With `CN1CCN2c3ccccc3Cc3ccccc3C2C1` (stereo not drawn) [Mianserin, mianserin hydrochloride] as the compound, how does the µeff4.4 read?
A: Its µeff4.4 is 22.471 ± 0.004 10^-5 cm^2 V^-1 s^-1.

Q: Which µeff4.4 does the source give for `CNC[C@H](O)c1cccc(O)c1` [Phenilephrine, Phenilephrine hydrochloride] here?
A: The µeff4.4 was 25.780 ± 0.006 10^-5 cm^2 V^-1 s^-1.

Q: For `c1ccc2c(c1)OCC(C1=NCCN1)O2` (stereo not drawn) [Idazoxan, idazoxan hydrochloride], which µeff4.4 is on record?
A: The µeff4.4 was 26.969 ± 0.032 10^-5 cm^2 V^-1 s^-1.

Q: With `COc1nc(C)nc(Cl)c1N=C1NCCN1` [Moxonidine, moxonidine hydrochloride] as the compound, how does the µeff4.4 read?
A: Its µeff4.4 is 22.669 ± 0.104 10^-5 cm^2 V^-1 s^-1.

Q: Which µeff4.4 does the source give for `Nc1nc(N)c2nc(-c3ccccc3)c(N)nc2n1` [Triamterene, triamterene] here?
A: The µeff4.4 was 22.146 ± 0.019 10^-5 cm^2 V^-1 s^-1.

Same assay, conditions: pH 7.4

Q: For `Nc1nc(N)c2nc(-c3ccccc3)c(N)nc2n1` [Triamterene, triamterene], which “μeff7.4 (effective electrophoretic mobility, text)” value is on record?
A: Its value is 1.140±0.053 10^-5 cm^2 / V s.

Same assay, conditions: pH 7.4; I = 25 mmol/L, 11 kV, 25 °C, three replicates

Q: Which µeff7.4 does the source give for `CN1CCN(C2=Nc3cc(Cl)ccc3Nc3ccccc32)CC1` [Clozapine, clozapine] here?
A: Its µeff7.4 is 9.204 ± 0.061 10^-5 cm^2 V^-1 s^-1.

Q: With `CN1CCN2c3ccccc3Cc3ccccc3C2C1` (stereo not drawn) [Mianserin, mianserin hydrochloride] as the compound, how does the µeff7.4 read?
A: The µeff7.4 was 12.234 ± 0.109 10^-5 cm^2 V^-1 s^-1.

Q: Which µeff7.4 does the source give for `CNC[C@H](O)c1cccc(O)c1` [Phenilephrine, Phenilephrine hydrochloride] here?
A: Its µeff7.4 is 21.650 ±0.195 10^-5 cm^2 V^-1 s^-1.

Q: For `c1ccc2c(c1)OCC(C1=NCCN1)O2` (stereo not drawn) [Idazoxan, idazoxan hydrochloride], which µeff7.4 is on record?
A: Its µeff7.4 is 23.293 ± 0.020 10^-5 cm^2 V^-1 s^-1.

Q: For `COc1nc(C)nc(Cl)c1N=C1NCCN1` [Moxonidine, moxonidine hydrochloride], which µeff7.4 is on record?
A: The µeff7.4 was 10.907 ± 0.078 10^-5 cm^2 V^-1 s^-1.

Q: Which µeff7.4 does the source give for `Nc1nc(N)c2nc(-c3ccccc3)c(N)nc2n1` [Triamterene, triamterene] here?
A: The µeff7.4 was 1.140 ± 0.053 10^-5 cm^2 V^-1 s^-1.

Same assay, conditions: pH 9.1

Q: For `CN1CCN(C2=Nc3cc(Cl)ccc3Nc3ccccc32)CC1` [Clozapine, clozapine], which “μeff9.1 (effective electrophoretic mobility)” value is on record?
A: Its value is “zero”.

Q: Which “μeff9.1 (effective electrophoretic mobility)” value does the source give for `COc1nc(C)nc(Cl)c1N=C1NCCN1` [Moxonidine, moxonidine hydrochloride] here?
A: Its value is “zero”.

Q: Which “μeff9.1 (effective electrophoretic mobility)” value does the source give for `Nc1nc(N)c2nc(-c3ccccc3)c(N)nc2n1` [Triamterene, triamterene] here?
A: The value was “zero”.

Same assay, conditions: pH 9.1; I = 25 mmol/L, 11 kV, 25 °C, three replicates

Q: For `CN1CCN(C2=Nc3cc(Cl)ccc3Nc3ccccc32)CC1` [Clozapine, clozapine], which µeff9.1 is on record?
A: Its µeff9.1 is 0.000 ± 0.000 10^-5 cm^2 V^-1 s^-1.

Q: With `CN1CCN2c3ccccc3Cc3ccccc3C2C1` (stereo not drawn) [Mianserin, mianserin hydrochloride] as the compound, how does the µeff9.1 read?
A: The µeff9.1 was 0.000 ± 0.000 10^-5 cm^2 V^-1 s^-1.

Q: With `CNC[C@H](O)c1cccc(O)c1` [Phenilephrine, Phenilephrine hydrochloride] as the compound, how does the µeff9.1 read?
A: The µeff9.1 was 8.661 ± 0.036 10^-5 cm^2 V^-1 s^-1.

Q: Which µeff9.1 does the source give for `c1ccc2c(c1)OCC(C1=NCCN1)O2` (stereo not drawn) [Idazoxan, idazoxan hydrochloride] here?
A: The µeff9.1 was 6.627 ± 0.102 10^-5 cm^2 V^-1 s^-1.

Q: For `COc1nc(C)nc(Cl)c1N=C1NCCN1` [Moxonidine, moxonidine hydrochloride], which µeff9.1 is on record?
A: The µeff9.1 was 0.000 ± 0.000 10^-5 cm^2 V^-1 s^-1.

Q: For `Nc1nc(N)c2nc(-c3ccccc3)c(N)nc2n1` [Triamterene, triamterene], which µeff9.1 is on record?
A: The µeff9.1 was 0.000 ± 0.000 10^-5 cm^2 V^-1 s^-1.

Experiment: RP-HPLC retention on XTerra RP18, methanol/buffer; extrapolated retention factor log kw and slope S
Format: physicochemical
Conditions: pH 4.4; intercept, extrapolated to 100 % buffer; methanol/buffer, 25 °C
Experimental: All measurements were performed at 25°C with a constant flow rate of 0.8 mL min^-1 and UV detection in the range of 200-280 nm. The injection volume was 20 μL. […] The retention factor k was calculated for each mobile phase composition according to Equation (1):
where tr is the retention time of the tested compound and t0 is the dead volume measured with KNO3 as a non-retentive marker. The values corresponding to 100 % of the buffered eluent (log kw) were determined by extrapolation according to Equation (2):
where log kw is the intercept, S is the slope of the regression line, and φ is the volume fraction of the organic modifier in the mobile phase.
The retention behaviour in HPLC system was monitored by calculating extrapolated retention factors log kw corresponding to pure buffer as mobile phase.

Q: For `CN1CCN(C2=Nc3cc(Cl)ccc3Nc3ccccc32)CC1` [Clozapine, clozapine], which log kw is on record?
A: Its log kw is 2.94 ± 0.03.

Q: With `CN1CCN2c3ccccc3Cc3ccccc3C2C1` (stereo not drawn) [Mianserin, mianserin hydrochloride] as the compound, how does the log kw read?
A: Its log kw is 2.48 ± 0.03.

Q: For `CNC[C@H](O)c1cccc(O)c1` [Phenilephrine, Phenilephrine hydrochloride], which log kw is on record?
A: The log kw was 0.09 ± 0.02.

Q: With `c1ccc2c(c1)OCC(C1=NCCN1)O2` (stereo not drawn) [Idazoxan, idazoxan hydrochloride] as the compound, how does the log kw read?
A: Its log kw is 0.82 ± 0.01.

Q: For `COc1nc(C)nc(Cl)c1N=C1NCCN1` [Moxonidine, moxonidine hydrochloride], which log kw is on record?
A: Its log kw is 0.57 ± 0.03.

Q: With `Nc1nc(N)c2nc(-c3ccccc3)c(N)nc2n1` [Triamterene, triamterene] as the compound, how does the log kw read?
A: Its log kw is 1.75 ± 0.05.

Same assay, conditions: pH 4.4; intercept, extrapolated to 100 % buffer; methanol/buffer, 25 °C; listed as phenilephrine

Q: With `CNC[C@H](O)c1cccc(O)c1` [Phenilephrine, Phenilephrine hydrochloride] as the compound, how does the log kw read?
A: The log kw was 0.09.

Same assay, conditions: pH 4.4; slope of log k vs methanol volume fraction

Q: Which “S (slope)” value does the source give for `CN1CCN(C2=Nc3cc(Cl)ccc3Nc3ccccc32)CC1` [Clozapine, clozapine] here?
A: The value was -4.69 ± 0.06.

Q: For `CN1CCN2c3ccccc3Cc3ccccc3C2C1` (stereo not drawn) [Mianserin, mianserin hydrochloride], which “S (slope)” value is on record?
A: The value was -4.24 ± 0.07.

Q: For `CNC[C@H](O)c1cccc(O)c1` [Phenilephrine, Phenilephrine hydrochloride], which “S (slope)” value is on record?
A: Its value is -2.53 ± 0.14.

Q: With `c1ccc2c(c1)OCC(C1=NCCN1)O2` (stereo not drawn) [Idazoxan, idazoxan hydrochloride] as the compound, how does the “S (slope)” value read?
A: Its value is -2.66 ± 0.03.

Q: For `COc1nc(C)nc(Cl)c1N=C1NCCN1` [Moxonidine, moxonidine hydrochloride], which “S (slope)” value is on record?
A: The value was -3.21± 0.17.

Q: With `Nc1nc(N)c2nc(-c3ccccc3)c(N)nc2n1` [Triamterene, triamterene] as the compound, how does the “S (slope)” value read?
A: Its value is -3.96 ± 0.14.

Same assay, conditions: pH 7.4; intercept, extrapolated to 100 % buffer; methanol/buffer, 25 °C

Q: For `CN1CCN(C2=Nc3cc(Cl)ccc3Nc3ccccc32)CC1` [Clozapine, clozapine], which log kw is on record?
A: The log kw was 3.85 ± 0.05.

Q: For `CN1CCN2c3ccccc3Cc3ccccc3C2C1` (stereo not drawn) [Mianserin, mianserin hydrochloride], which log kw is on record?
A: Its log kw is 3.91 ± 0.05.

Q: With `CNC[C@H](O)c1cccc(O)c1` [Phenilephrine, Phenilephrine hydrochloride] as the compound, how does the log kw read?
A: Its log kw is 0.04 ± 0.01.

Q: Which log kw does the source give for `c1ccc2c(c1)OCC(C1=NCCN1)O2` (stereo not drawn) [Idazoxan, idazoxan hydrochloride] here?
A: The log kw was 0.85 ± 0.02.

Q: For `COc1nc(C)nc(Cl)c1N=C1NCCN1` [Moxonidine, moxonidine hydrochloride], which log kw is on record?
A: The log kw was 0.63 ± 0.03.

Q: Which log kw does the source give for `Nc1nc(N)c2nc(-c3ccccc3)c(N)nc2n1` [Triamterene, triamterene] here?
A: Its log kw is 1.92 ± 0.05.

Same assay, conditions: pH 7.4; slope of log k vs methanol volume fraction

Q: With `CN1CCN(C2=Nc3cc(Cl)ccc3Nc3ccccc32)CC1` [Clozapine, clozapine] as the compound, how does the “S (slope)” value read?
A: The value was -4.88 ± 0.08.

Q: For `CN1CCN2c3ccccc3Cc3ccccc3C2C1` (stereo not drawn) [Mianserin, mianserin hydrochloride], which “S (slope)” value is on record?
A: Its value is -4.82 ± 0.08.

Q: For `CNC[C@H](O)c1cccc(O)c1` [Phenilephrine, Phenilephrine hydrochloride], which “S (slope)” value is on record?
A: Its value is -2.62 ± 0.06.

Q: With `c1ccc2c(c1)OCC(C1=NCCN1)O2` (stereo not drawn) [Idazoxan, idazoxan hydrochloride] as the compound, how does the “S (slope)” value read?
A: Its value is -1.58 ± 0.04.

Q: For `COc1nc(C)nc(Cl)c1N=C1NCCN1` [Moxonidine, moxonidine hydrochloride], which “S (slope)” value is on record?
A: Its value is -2.36 ± 0.10.

Q: For `Nc1nc(N)c2nc(-c3ccccc3)c(N)nc2n1` [Triamterene, triamterene], which “S (slope)” value is on record?
A: The value was -3.76 ± 0.12.

Same assay, conditions: pH 9.1; intercept, extrapolated to 100 % buffer; methanol/buffer, 25 °C

Q: Which log kw does the source give for `CN1CCN(C2=Nc3cc(Cl)ccc3Nc3ccccc32)CC1` [Clozapine, clozapine] here?
A: The log kw was 3.95 ± 0.08.

Q: Which log kw does the source give for `CN1CCN2c3ccccc3Cc3ccccc3C2C1` (stereo not drawn) [Mianserin, mianserin hydrochloride] here?
A: The log kw was 3.92 ± 0.06.

Q: Which log kw does the source give for `CNC[C@H](O)c1cccc(O)c1` [Phenilephrine, Phenilephrine hydrochloride] here?
A: The log kw was 0.39 ± 0.02.

Q: Which log kw does the source give for `c1ccc2c(c1)OCC(C1=NCCN1)O2` (stereo not drawn) [Idazoxan, idazoxan hydrochloride] here?
A: Its log kw is 1.53 ± 0.01.

Q: Which log kw does the source give for `COc1nc(C)nc(Cl)c1N=C1NCCN1` [Moxonidine, moxonidine hydrochloride] here?
A: The log kw was 0.75 ± 0.04.

Q: Which log kw does the source give for `Nc1nc(N)c2nc(-c3ccccc3)c(N)nc2n1` [Triamterene, triamterene] here?
A: The log kw was 1.93 ± 0.04.

Same assay, conditions: pH 9.1; slope of log k vs methanol volume fraction

Q: For `CN1CCN(C2=Nc3cc(Cl)ccc3Nc3ccccc32)CC1` [Clozapine, clozapine], which “S (slope)” value is on record?
A: Its value is -5.04 ± 0.15.

Q: For `CN1CCN2c3ccccc3Cc3ccccc3C2C1` (stereo not drawn) [Mianserin, mianserin hydrochloride], which “S (slope)” value is on record?
A: The value was -4.83 ± 0.11.

Q: Which “S (slope)” value does the source give for `CNC[C@H](O)c1cccc(O)c1` [Phenilephrine, Phenilephrine hydrochloride] here?
A: The value was -2.00 ± 0.06.

Q: For `c1ccc2c(c1)OCC(C1=NCCN1)O2` (stereo not drawn) [Idazoxan, idazoxan hydrochloride], which “S (slope)” value is on record?
A: The value was -2.80 ± 0.01.

Q: Which “S (slope)” value does the source give for `COc1nc(C)nc(Cl)c1N=C1NCCN1` [Moxonidine, moxonidine hydrochloride] here?
A: Its value is -2.31 ± 0.10.

Q: With `Nc1nc(N)c2nc(-c3ccccc3)c(N)nc2n1` [Triamterene, triamterene] as the compound, how does the “S (slope)” value read?
A: Its value is -3.75 ± 0.11.

Experiment: not given
Conditions: HPLC; ref 5 (Supplement reference list); cited from earlier work

Q: Which pKa experimental does the source give for `CN1CCN(C2=Nc3cc(Cl)ccc3Nc3ccccc32)CC1` [Clozapine, clozapine] here?
A: The pKa experimental was 7.719 ± 0.015.

Same assay, conditions: HPLC; ref 7 (Supplement reference list); cited from earlier work

Q: With `c1ccc2c(c1)OCC(C1=NCCN1)O2` (stereo not drawn) [Idazoxan, idazoxan hydrochloride] as the compound, how does the pKa experimental read?
A: Its pKa experimental is 9.04.

Q: With `COc1nc(C)nc(Cl)c1N=C1NCCN1` [Moxonidine, moxonidine hydrochloride] as the compound, how does the pKa experimental read?
A: Its pKa experimental is 7.84.

Same assay, conditions: pH-spectrophotometric; ref 14 (Supplement reference list); cited from earlier work

Q: With `CNC[C@H](O)c1cccc(O)c1` [Phenilephrine, Phenilephrine hydrochloride] as the compound, how does the “pKa experimental (first of two printed values)” value read?
A: The value was 9.17.

Q: And the “pKa experimental (second of two printed values)” value?
A: Its value is 9.17 and 10.45 (pH-spectrophotometric) [14 ].

Same assay, conditions: potentiometric; ref 12 (Supplement reference list); cited from earlier work

Q: Which pKa experimental does the source give for `CN1CCN2c3ccccc3Cc3ccccc3C2C1` (stereo not drawn) [Mianserin, mianserin hydrochloride] here?
A: The pKa experimental was 7.40.

Same assay, conditions: spectrophotometric; ref 15 (Supplement reference list); cited from earlier work

Q: With `Nc1nc(N)c2nc(-c3ccccc3)c(N)nc2n1` [Triamterene, triamterene] as the compound, how does the pKa experimental read?
A: Its pKa experimental is 7.16.
